Assays:
Format in all cases: nucleic-acid assay
Nucleic Acid [1] = experiment: Tested for binding association constant against calf thymus using ethidium bromide assay; conditions: Bos taurus
Nucleic Acid [2] = experiment: Tested for binding association constant against Poly (dG-dC) using ethidium bromide assay
Nucleic Acid [3] = experiment: Tested for binding association constant against T4 coliphage DNA using ethidium bromide assay
Nucleic Acid [4] = experiment: Tested for binding association constant against Poly (dA.dT) using ethidium bromide assay
Nucleic Acid [5] = experiment: Tested for binding association constant against calf thymus DNA using ethidium bromide assay; conditions: Bos taurus

For `CN(C)CCNC(=O)c1nc(NC(=O)CCCNC(=O)c2nc(NC=O)cn2C)cn1C`, the K app (Nucleic Acid [1]) was 10000 M⁻¹, the K app (Nucleic Acid [2]) was 21000 M⁻¹ and the K app (Nucleic Acid [3]) was 33000 M⁻¹. It also gave a K app (Nucleic Acid [4]) of 10000 M⁻¹.
Work on `Cn1cc(NC(=O)c2cc(NC(=O)c3cc(NC=O)cn3C)cn2C)cc1C(=O)NCCC(=N)N` yielded a K app (Nucleic Acid [2]) of 200000 M⁻¹, a K app (Nucleic Acid [5]) of 770000 M⁻¹ and a K app (Nucleic Acid [3]) of 650000 M⁻¹. It also gave a K app (Nucleic Acid [4]) of 3.48e+07 M⁻¹.
`CN(C)CCNC(=O)c1nc(NC(=O)c2nc(NC(=O)CCCNC(=O)c3nc(NC=O)cn3C)cn2C)cn1C` was tested, and the K app (Nucleic Acid [1]) was 48000 M⁻¹, the K app (Nucleic Acid [2]) was 92000 M⁻¹ and the K app (Nucleic Acid [3]) was 140000 M⁻¹. The K app (Nucleic Acid [4]) was 50000 M⁻¹.
Compound `CN(C)CCNC(=O)c1nc(NC(=O)CCNC(=O)c2nc(NC=O)cn2C)cn1C` has a K app (Nucleic Acid [1]) of 150000 M⁻¹, a K app (Nucleic Acid [2]) of 580000 M⁻¹ and a K app (Nucleic Acid [3]) of 140000 M⁻¹. For the same compound, the K app (Nucleic Acid [4]) was 12000 M⁻¹.
`CN(C)CCNC(=O)c1nc(NC(=O)c2nc(NC(=O)CCNC(=O)c3nc(NC=O)cn3C)cn2C)cn1C` gave a K app (Nucleic Acid [1]) of 1.6e+06 M⁻¹, a K app (Nucleic Acid [2]) of 5.2e+06 M⁻¹ and a K app (Nucleic Acid [3]) of 1.9e+06 M⁻¹. It also gave a K app (Nucleic Acid [4]) of 250000 M⁻¹.

— ChEMBL document CHEMBL1127269, “Synthesis and DNA binding properties of a series of N to C linked and imidazole containing analogues of distamycin” (Bioorg Med Chem Lett, 1994)
